Laboratory results: the NIST ThermoML archive (doi:10.1016/j.fluid.2017.03.010)
Numbers after ± are expanded uncertainties.

Conditions: Liquid

| Normal boiling temperature (othmer still) [°C] | Normal boiling temperature (Othmer still) [°C] | Structure (SMILES) |
| --- | --- | --- |
| 78.30 ± 1.6 | – | CCO [ethanol] |
| – | 100.00 ± 1.6 | O [water] |
